Results reported in ChEMBL document CHEMBL4513161, “CO-ADD screening of MMV (CH) - Pandemic Response Box” (2021).
Converted amounts (≈) assume the structure as drawn. Counter-ions that a name gives are not always drawn.

Legend:
Candida albicans = experiment: microbe, parasite or virus in culture; conditions: ATCC 90028, ASSAY_TEST Inhibition of Fungal Growth, detection method Absorption (OD530), plate type 384well, NBS, CORNING #3640
Description: Antifungal activity against Candida albicans ATCC 90028 (CO-ADD:FG_001); MIC in YNB media using NBS plates, by OD630

HEK293 = experiment: cells; type: functional, Homo sapiens, ATCC CRL1573; conditions: Homo sapiens, ATCC CRL1573, HEK293; ASSAY_TEST Inhibition of Cell Viability; detection method Resazurin; Fluorescence (ex560/em590); MEDIA DMEM with 10% FBS; plate type 384well; TC; CORNING #3712; time 18 hr; read-out: CC50
Pseudomonas aeruginosa [1] = experiment: microbe, parasite or virus in culture; conditions: ATCC 27853, 18 h, ASSAY_TEST Inhibition of Bacterial Growth, detection method Absorption (OD600), MEDIA CAMHB, plate type 384well, NBS, CORNING #3640
Description: Antibacterial activity against Pseudomonas aeruginosa ATCC 27853 (CO-ADD:GN_042); MIC in CAMBH media using NBS plates, by OD(600)

Pseudomonas aeruginosa [2] = experiment: Antibacterial activity against Pseudomonas aeruginosa PAO397 [PAO1 d(mexAB-oprM) d(mexCD-oprJ) d(mexEF-oprN) d(mexJKL) d(mexXY) d(opmH)] (CO-ADD:GN_211); MIC in CAMBH media using NBS plates, by OD(600); type: functional; conditions: ASSAY_TEST Inhibition of Bacterial Growth, detection method Absorption (OD600), MEDIA CAMHB, plate type 384well, CORNING #3640, time 18 hr
Staphylococcus aureus = experiment: microbe, parasite or virus in culture; conditions: ATCC 43300, 18 h, ASSAY_TEST Inhibition of Bacterial Growth, detection method Absorption (OD600), MEDIA CAMHB, plate type 384well, NBS, CORNING #3640
Description: Antibacterial activity against Staphylococcus aureus MRSA ATCC 43300 (CO-ADD:GP_020); MIC in CAMBH media, using NBS plates, by OD(600)

Klebsiella pneumoniae = experiment: microbe, parasite or virus in culture; conditions: ATCC 700603, 18 h, ASSAY_TEST Inhibition of Bacterial Growth, detection method Absorption (OD600), MEDIA CAMHB, plate type 384well, NBS, CORNING #3640
Description: Antibacterial activity against Klebsiella pneumoniae MDR ATCC 70063 (CO-ADD:GN_003); MIC in CAMBH media using NBS plates, by OD(600)

Escherichia coli = experiment: microbe, parasite or virus in culture; conditions: ATCC 25922, 18 h, ASSAY_TEST Inhibition of Bacterial Growth, detection method Absorption (OD600), MEDIA CAMHB, plate type 384well, NBS, CORNING #3640
Description: Antibacterial activity against Escherichia coli ATCC 25922 (CO-ADD:GN_001); MIC in CAMBH media using NBS plates, by OD(600)

Acinetobacter baumannii = experiment: microbe, parasite or virus in culture; conditions: ATCC 19606, 18 h, ASSAY_TEST Inhibition of Bacterial Growth, detection method Absorption (OD600), MEDIA CAMHB, plate type 384well, NBS, CORNING #3640
Description: Antibacterial activity against Acinetobacter baumannii ATCC 19606 (CO-ADD:GN_034); MIC in CAMBH media using NBS plates, by OD600

Description for Cryptococcus neoformans: Antifungal activity against Cryptococcus neoformans H99 ATCC 208821 (CO-ADD:FG_002); MIC in YNB media using NBS plates, by Resazurin OD(600-570)

| Compound | MIC (Cryptococcus neoformans) | MIC (Candida albicans) | CC50 (HEK293) | MIC (Pseudomonas aeruginosa [1]) | MIC (Pseudomonas aeruginosa [2]) | MIC (Staphylococcus aureus) | MIC (Klebsiella pneumoniae) | MIC (Escherichia coli) | MIC (Acinetobacter baumannii) |
| --- | --- | --- | --- | --- | --- | --- | --- | --- | --- |
| CC[C@H](CO)Nc1nc(NCc2ccccc2)c2ncn(C(C)C)c2n1 [SELICICLIB] | > 20 µM | > 20 µM | > 20 µM | > 20 µM | > 20 µM | > 20 µM | > 20 µM | > 20 µM | > 20 µM |
| N[C@@H]1CN(c2c(F)cc3c(=O)c(C(=O)O)cn([C@@H]4C[C@@H]4F)c3c2Cl)CC12CC2 [SITAFLOXACIN ANHYDROUS] | > 20 µM | > 20 µM | > 20 µM | 2.5 µM (≈ 1.02 µg/mL) | ≤ 0.156 µM | 0.312 µM (≈ 0.128 µg/mL) | 5 µM (≈ 2.05 µg/mL) | ≤ 0.156 µM | 5 µM (≈ 2.05 µg/mL) |
| CC(C)=CCC/C(C)=C/CNCCNC1C2CC3CC(C2)CC1C3 (configuration not stated) [SQ109] | > 20 µM | > 20 µM | 19.5 µM | > 20 µM | 20 µM (≈ 6.61 µg/mL) | > 20 µM | > 20 µM | > 20 µM | > 20 µM |
| COc1cc(C)c2c(Oc3cccc(C(F)(F)F)c3)c(OC)cc(NC(C)CCCN)c2n1 (configuration not stated) [TAFENOQUINE SUCCINATE] | > 20 µM | > 20 µM | 6.36 µM | > 20 µM | > 20 µM | 10 µM | > 20 µM | > 20 µM | > 20 µM |
| O=C(NN1C(=O)[C@@H]2[C@@H]3C=C[C@@H]([C@H]4C[C@@H]34)[C@@H]2C1=O)c1ccc(C(F)(F)F)cc1 [TECOVIRIMAT] | > 20 µM | > 20 µM | > 20 µM | > 20 µM | > 20 µM | > 20 µM | > 20 µM | > 20 µM | > 20 µM |
| CCc1nc2ccc(Cl)cn2c1C(=O)NCc1ccc(N2CCC(c3ccc(OC(F)(F)F)cc3)CC2)cc1 [TELACEBEC] | > 20 µM | > 20 µM | > 20 µM | > 20 µM | > 20 µM | > 20 µM | > 20 µM | > 20 µM | > 20 µM |
| C[C@H](Cn1cnc2c(N)ncnc21)OCP(=O)(O)O [TENOFOVIR ANHYDROUS] | > 20 µM | > 20 µM | > 20 µM | > 20 µM | > 20 µM | > 20 µM | > 20 µM | > 20 µM | > 20 µM |
| COc1ccc(C[C@@H](C)[C@@H](C)Cc2ccc(OC)c(OC)c2)cc1OC [TERAMEPROCOL] | > 20 µM | > 20 µM | > 20 µM | > 20 µM | > 20 µM | > 20 µM | > 20 µM | > 20 µM | > 20 µM |
| CN(C/C=C/C#CC(C)(C)C)Cc1cccc2ccccc12 [TERBINAFINE HYDROCHLORIDE] | 20 µM | > 20 µM | > 20 µM | > 20 µM | > 20 µM | > 20 µM | > 20 µM | > 20 µM | > 20 µM |
| O=C1CCC(N2C(=O)c3ccccc3C2=O)C(=O)N1 (configuration not stated) [THALIDOMIDE] | > 20 µM | > 20 µM | > 20 µM | > 20 µM | > 20 µM | > 20 µM | > 20 µM | > 20 µM | > 20 µM |
| Cn1cncc1[C@@](N)(c1ccc(Cl)cc1)c1ccc2c(c1)c(-c1cccc(Cl)c1)cc(=O)n2C [TIPIFARNIB] | > 20 µM | > 20 µM | 8.09 µM | > 20 µM | > 20 µM | 20 µM (≈ 9.79 µg/mL) | > 20 µM | > 20 µM | > 20 µM |
| NC[C@H]1O[C@H](O[C@H]2[C@H](O)[C@@H](O[C@H]3O[C@H](CO)[C@@H](O)[C@H](N)[C@H]3O)[C@H](N)C[C@@H]2N)[C@H](N)C[C@@H]1O [TOBRAMYCIN] | > 20 µM | > 20 µM | > 20 µM | 20 µM (≈ 9.35 µg/mL) | 1.25 µM (≈ 0.584 µg/mL) | > 20 µM | > 20 µM | 2.5 µM (≈ 1.17 µg/mL) | 2.5 µM (≈ 1.17 µg/mL) |
| CC[C@@]1(O)C(=O)OCc2c1cc1n(c2=O)Cc2cc3c(CN(C)C)c(O)ccc3nc2-1 [TOPOTECAN HYDROCHLORIDE] | > 20 µM | > 20 µM | 0.218 µM | > 20 µM | > 20 µM | > 20 µM | > 20 µM | > 20 µM | > 20 µM |
